“Also recorded” adds a separate entry of the source.
What was measured:
[1] = system: BCR-ABL^+LSC (Kit^+Sca1^+Lin^−GFP^+); experiment: Apoptosis of BCR-ABL+ LSCs treated ex vivo (annexin V, flow cytometry); format: cell-based, mouse
Experimental: Apoptosis. Apoptosis of LSCs was performed using annexin V as described below in Supplementary Information and Methods.
Apoptosis. The LSCs were diluted in DMEM, resuspended using a 16-gauge needle, and collected by centrifugation. 1×10^5 cells were resuspended in 200 μl of binding buffer (0.1 M HEPES with 1.4 M NaCl, 25 mM CaCl2, pH 7.4). Annexin V FITC (BD Biosciences) was incubated with cells for 15 min on ice followed by flow cytometric analysis.
The ability of CyPGs derived from arachidonic acid (2 series PGs) to induce apoptosis was tested in cultures of LSCs from FV infected mice and in the murine CML model. […] 15d-PGJ2 is known as a PPAPγ agonist. […] In FIG. 7C Δ^12-PGJ3, 15d-PGJ2 or 9,10-dihydro-15d-PGJ2 are tested for their ability to induce apoptosis in a murine CML model. […] The cells were stained with annexin V-FITC and analyzed by flow cytometry. Representative of N=4. […] Inset: Effect of rosiglitazone on the apoptosis of LSC. Rosiglitazone (0.1-2.0 μM) was incubated with LSC in the culture media for 36 h as described earlier and the cells were subjected to annexin-V staining followed by flow cytometry. […] LSC were treated ex vivo with indicated concentrations of each compound for 36 h.
Following 36 h of incubation, apoptotic cells were quantified by annexin V staining. […] In a related study to address if Δ^12-PGJ3 treatment would cause any degranulation of granulocytes, a rat basophilic cell line ([…]) was treated with 100 nM Δ^12-PGJ3 and the degranulation was followed by quantitating the release of histamine and a second marker of degranulation, hexoseaminidase.
In this experiment, 500,000 BCR-ABL+ LSCs were plated in a 24-well plate followed and were treated with 25 nM PGD2Me or 100 nM ZK118182 (both are agonists of DP) for 24 h. GFP^+ cells were analyzed by flow cytometry. These agonists were purchased from Cayman Chemicals, MI.

[2] = system: BCR-ABL^+LSC transplanted mice; experiment: Murine CML model: mice transplanted with BCR-ABL+ LSCs; format: in vivo, mouse
Experimental: Induction of CML using MIGR-BCR-ABL retrovirus: MIGR-BCR-ABL and control MSCV-GFP retroviruses were obtained. […] C57BL/6 mice were treated with 5-fluorouracil (5-FU; 150 mg/Kg, Sigma, St. Louis, Mo.) to enrich for cycling HSCs. On day four after treatment bone marrow cells were harvested and infected with MIGR-BCR-ABL or MSCV-GFP control virus overnight in IMDM media containing 5% FCS and supplemented with 2.5 ng/ml IL-3 and 15 ng/ml SCF (R&D Systems Minneapolis, Minn.). 0.5×10^6 transduced cells were transplanted by retro-orbital injection into C57BL/6 recipient mice that were preconditioned with 950 Rads of irradiation. In order to increase the number of CML and control mice, 17 days after transplant GFP^+ spleen cells were isolated by FACS and 1×10^5 GFP^+ cells were transplanted into irradiated (950 Rads) secondary C57BL/6 recipients. Two weeks after transplant, mice were treated as indicated with CyPGs and vehicle control. For ex-vivo experiments, Kit^+Sca1^+Lin^−GFP^+ cells were isolated from the bone marrow or spleen of transplanted mice by FACS. The sorted cells were cultured in Methocult media M3334 (Stem Cell Technologies Vancouver BC) M3334 supplemented with Shh, SCF, and BMP4 and treated with the indicated CyPGs and vehicle controls for indicated time periods. […] The hematopoietic colonies (colony forming cells in culture, CFC) were scored.
Treatment of Mice with PGs: Mice with FV-induced erythroleukemia or MIGR-BCR-ABL induced CML were treated on the indicated days with CyPGs. Mice were treated with a daily intraperitoneal injection of Δ^12-PGJ3 (0.01-0.1 mg/kg), 15d-PGJ2 (0.1 mg/kg), or 9,10-dihydro-15d-PGJ2 (0.1 mg/kg) for 7 days. All three compounds were formulated with hydroxypropyl-β-cyclodextrin (30% w/v; Sigma; vehicle control).

residual BCR-ABL LSCs = experiment: Secondary transplants from treated BCR-ABL mice (residual LSCs); format: in vivo, mouse
Experimental: (§1) Secondary transplants to test for residual LSCs after treatment with Δ^12-PGJ3: For the CML model, B6.SJLPtprca Pep3b/BoyJ (CD45.1^+) mice were treated with 5-FU and bone marrow cells enriched in cycling HSCs were isolated followed by infection with MIGR-BCR-ABL virus or control MSCV-GFP virus as described above. The cells were transplanted into C57BL/6 (CD45.2) recipient mice as mentioned earlier. The mice were treated with Δ^12-PGJ3 or vehicle control as indicated. Two weeks after treatment, spleen cells were isolated and transplanted into irradiated secondary C57BL/6 (CD45.2) recipients as described above. Two weeks after secondary transplant, mice were analyzed for WBC counts, splenomegaly and the presence of GFP^+ or CD45.1 donor cells in the bone marrow and spleen by flow cytometry. Secondary transplants were also done with FV infected mice treated with Δ^12-PGJ3 or vehicle control. BALB/c mice were infected with Friend virus as described above. The mice were treated with Δ^12-PGJ3 or vehicle control as indicated. Two weeks after treatment, spleen cells isolated from FV-infected mice and transplanted into BALB/c-Stk^−/− recipient mice (1×10^5 cells per mouse). Five weeks post transplant, the mice with secondary transplants were tested for WBC counts, splenomegaly and for the presence of M34^+Kit^+Sca1^+FV-LSCs by flow cytometry.

residual FV-LSCs = experiment: Secondary transplants from treated FV-LSC mice into BALB/c-Stk−/− recipients; format: in vivo, mouse; conditions: donor cells from treated FV-LSC transplanted mice
Experimental: as §1

NF-κB = NF-κB gel shift in LPS-treated RAW264.7 macrophages; format: cell-based, mouse; conditions: 0.25 or 1.0 μM, then LPS 100 ng/mL 4 h
Experimental: The effect of Δ^12-PGJ3 on NF-κB and PPAPγ was examined. RAW264.7 macrophages were pretreated with DMSO, Δ^12-PGJ3 at 0.25, or 1.0 μM and subsequently stimulated with 100 ng/mL E. coli LPS for 4 h. The nuclear extracts were prepared and the binding of NΦκB to a ^32P-labeled consensus double stranded oligonucleotide probe was examined using gel shift analysis. NS=non-specific band. Lanes 1-5 represent untreated, LPS alone, DMSO+LPS, Δ^12-PGJ3 (0.25 μM)+LPS, and Δ^12-PGJ3 (1 μM)+LPS, respectively. BCR-ABL LSCs were sorted from spleens, plated, and treated with PBS, 25 nM Δ^12-PGJ3, or 9,10-dihydro 15d-PGJ2 for 0, 2 or 6 h. The cells were harvested and nuclear extracts were prepared using standard techniques. Ten μg of nuclear protein was used from each sample for the gel-shift reaction. As a positive control for NF-κB, nuclear extract from LPS-treated murine (RAW264.7) macrophages was used. Anti-p50 Ab was used with this positive control for a supershift, and excess ‘cold’ probe was used with the positive control as a ‘cold competitor’. A Western blot analysis was performed of the above-mentioned nuclear extracts from BCR-ABL LSCs treated with PBS, Δ^12-PGJ3 or 9,10-dihydro-15d-PGJ2 for various time periods (0-6 h) probed with anti-p65 and anti-β-actin antibodies. […]

[3] = system: normal HSCs (MSCV-GFP^+HSC); experiment: Effect on normal HSCs (MSCV-GFP+ HSC) treated ex vivo

CC/C=C\C[C@H](O)C/C=C1/C(=O)C=C[C@@H]1C/C=C\CCCC(=O)O [Δ^12-PGJ3, Δ^12-prostaglandin J3]
apoptosis of BCR-ABL+LSCs ([1]; 25 nM, annexin V, caspase 3 and caspase 8 activation): significant increase in apoptosis; also recorded: highly susceptible to apoptosis | apoptosis of Sca1+GFP+Kit+ BCR-ABL+LSC from spleen ([1]; 25-1000 nM, 36 h): significantly increased their apoptosis | IC50 ([1]; Kit+Sca1+Lin−GFP+ LSCs from spleen of BCR-ABL mice, ex vivo 36 h, annexin V): ~12 nM | splenomegaly ([2]; 0.05 mg/kg for 1 week): completely alleviated splenomegaly | Kit+Sca1+GFP+ LSCs in the spleen ([2]; 1 week treatment): decreased | Kit+Sca1+Lin−GFP+ LSCs in the bone marrow ([2]; 1 week treatment): eradicated | leukocyte counts in peripheral blood ([2]; 1 week treatment): significantly decreased the leukocyte counts | survival and relapse, comparison with imatinib ([2]; Imatinib 75 mg/kg, Δ^12-PGJ3 0.025 mg/kg, 1 week): prolonged survival, but no relapse of leukemia | relapse after last dose ([2]; intraperitoneal, five weeks post last dose): no relapse | survival ([2]; vehicle mice died two weeks after transplantation): rescued all of the mice | Kit+Sca1+GFP+ LSCs in spleen of secondary recipients (residual BCR-ABL LSCs; donor cells from treated mice): lacked Kit^+Sca1^+GFP^+ cells | splenomegaly and WBC counts in secondary recipients (residual BCR-ABL LSCs; donor spleen cells from treated mice, two weeks after secondary transplant): failed to develop splenomegaly or high WBC counts | splenomegaly, WBC counts and LSCs in secondary recipients (residual FV-LSCs): failed to develop splenomegaly or high WBC counts and lacked LSCs in their spleens | NF-κB pathway, gel shift (NF-κB): did not affect the NF-κB pathway | effect on normal HSCs ([3]; Kit+Sca1+Lin−GFP+ cells from MSCV-control mice, ex vivo 36 h): no adverse effects on HSCs or downstream progenitors; also recorded: did not affect the normal HSCs | viability of MSCV-HSC control cells ([3]; antagonists/inhibitor 10 nM, Δ^12-PGJ3 25 nM, 36 h): not affected

— patent US9623031B2, “Compositions, methods and kits for treating cancer” (priority 2011, dated 2017)
